US9113629B2, “4-amino-6-(4-substituted-phenyl)-picolinates and 6-amino-2-(4-substituted-phenyl)-pyrimidine-4-carboxylates and their use as herbicides” (DOW AGROSCIENCES LLC, priority 2013, dated 2015)

Assays:
[1] = Post-emergent Test III, herbicidal activity in wheat and barley; type: in vivo, Lolium multiflorum, Lolium rigidum; conditions: Lolium multiflorum, post-emergence, 504 h, Table 9, post-emergent, 21 d, read-out: Visual Growth Reduction (%) 21 Days After Application LOLSS; for pest or weed control at 35 g/ha: 35 g ai/ha; for pest or weed control at 70 g/ha: 70 g ai/ha; for pest or weed control at 140 g/ha: 140 g ai/ha
Experimental: (§1) Post-emergent Test III. Seeds of the desired test plant species were planted in Sun Gro MetroMix® 306 planting mixture, which typically has a pH of 6.0 to 6.8 and an organic matter content of about 30 percent, in plastic pots with a surface area of 103.2 square centimeters (cm^2). When required to ensure good germination and healthy plants, a fungicide treatment and/or other chemical or physical treatment was applied. The plants were grown for 7-36 days (d) in a greenhouse with an approximate 14 hour (h) photoperiod which was maintained at about 18° C. during the day and 17° C. during the night. Nutrients and water were added on a regular basis and supplemental lighting was provided with overhead metal halide 1000-Watt lamps as necessary. The plants were employed for testing when they reached the second or third true leaf stage.
(§2) A weighed amount, determined by the highest rate to be tested, of each test compound was placed in a 25 mL glass vial and was dissolved in 4 mL of a 97:3 v/v mixture of acetone and DMSO to obtain concentrated stock solutions. […] The concentrated stock solutions obtained were diluted with 20 mL of an aqueous mixture containing acetone, water, isopropyl alcohol, DMSO, Agri-Dex crop oil concentrate, and X-77 surfactant in a 48:39:10:1.5:1.5:0.02 v/v ratio to obtain spray solutions containing the highest application rates. Additional application rates were obtained by serial dilution of 12 mL of the high rate solution into a solution containing 2 mL of 97:3 v/v mixture of acetone and DMSO and 10 mL of an aqueous mixture containing acetone, water, isopropyl alcohol, DMSO, Agri-Dex crop oil concentrate, and X-77 surfactant in a 48:39:10:1.5:1.5:0.02 v/v ratio to obtain ½×, ¼×, ⅛× and 1/16× rates of the high rate. Compound requirements are based upon a 12 mL application volume at a rate of 187 liters per hectare (L/ha). Formulated compounds were applied to the plant material with an overhead Mandel track sprayer equipped with 8002E nozzles calibrated to deliver 187 L/ha over an application area of 0.503 square meters at a spray height of 18 inches (43 cm) above the average plant canopy height. Control plants were sprayed in the same manner with the solvent blank.
(§3) The treated plants and control plants were placed in a greenhouse as described above and watered by subirrigation to prevent wash-off of the test compounds. After 21 d, the condition of the test plants as compared with that of the untreated plants was determined visually and scored on a scale of 0 to 100 percent where 0 corresponds to no injury and 100 corresponds to complete kill.
(§4) By applying the well-accepted probit analysis as described by J. Berkson in Journal of the American Statistical Society, 48, 565 (1953) and by D. Finney in “Probit Analysis” Cambridge University Press (1952), herbicidal injury of a specific compound at various rates can be used to calculate GR20, GR50, GR80 and GR90 values, which are defined as growth reduction factors that correspond to the effective dose of herbicide required to provide plant growth reduction (GR) of 20 percent, 50 percent, 80 percent and 90 percent, respectively. Probit analysis was applied to data collected from multiple dose rates of individual compounds utilizing the procedures explained in the following examples. The analysis of those dose rates is captured in the following tables.

[2] = system: APESV: bentgrass (Apera spica-venti); assay: as above; type: in vivo; conditions: Table 9, 21 d; for pest or weed control at 35 g/ha / pest or weed control at 70 g/ha / pest or weed control at 140 g/ha: Apera spica-venti, post-emergence, 504 h, post-emergent, read-out: Visual Growth Reduction (%) 21 Days After Application APESV; for pest or weed control at 35 g/ha: 35 g ai/ha; for pest or weed control at 70 g/ha: 70 g ai/ha; for GR50 APESV: dose for 50 percent growth reduction; for GR50 APESV / GR80 APESV: probit analysis; for GR80 APESV: dose for 80 percent growth reduction; for pest or weed control at 140 g/ha: 140 g ai/ha
Experimental: as §1, §2, §3, §4

[3] = system: HORSS: barley, including spring and winter (Hordeum vulgare); assay: as above; type: in vivo; conditions: Table 9, 21 d; for pest or weed control at 35 g/ha / pest or weed control at 70 g/ha / pest or weed control at 140 g/ha: Hordeum vulgare, post-emergence, 504 h, post-emergent, read-out: Visual Growth Reduction (%) 21 Days After Application HORSS; for pest or weed control at 35 g/ha: 35 g ai/ha; for pest or weed control at 70 g/ha: 70 g ai/ha; for GR20 HORSS: dose for 20 percent growth reduction, probit analysis; for pest or weed control at 140 g/ha: 140 g ai/ha
Experimental: as §1, §2, §3, §4

[4] = system: KCHSC: kochia (Kochia scoparia); assay: as above; type: in vivo; conditions: Table 9, 21 d; for pest or weed control at 35 g/ha / pest or weed control at 70 g/ha / pest or weed control at 140 g/ha: Bassia scoparia, post-emergence, 504 h, post-emergent, read-out: Visual Growth Reduction (%) 21 Days After Application KCHSC; for pest or weed control at 35 g/ha: 35 g ai/ha; for pest or weed control at 70 g/ha: 70 g ai/ha; for GR50 KCHSC: dose for 50 percent growth reduction; for GR50 KCHSC / GR80 KCHSC: probit analysis; for GR80 KCHSC: dose for 80 percent growth reduction; for pest or weed control at 140 g/ha: 140 g ai/ha
Experimental: as §1, §2, §3, §4

[5] = system: LOLSS: ryegrass including, Italian ryegrass (Lolium multiflorum), rigid ryegrass (Lolium rigidum), annual ryegrass (Lolium multiflorum subsp. Gaudini); assay: as above; type: in vivo; conditions: Table 9, probit analysis, 21 d; for GR50 LOLSS: dose for 50 percent growth reduction; for GR80 LOLSS: dose for 80 percent growth reduction
Experimental: as §1, §2, §3, §4

[6] = system: SETVI: green foxtail (Setaria viridis); assay: as above; type: in vivo; conditions: Table 9, 21 d; for pest or weed control at 35 g/ha / pest or weed control at 70 g/ha / pest or weed control at 140 g/ha: Setaria viridis, post-emergence, 504 h, post-emergent, read-out: Visual Growth Reduction (%) 21 Days After Application SETVI; for pest or weed control at 35 g/ha: 35 g ai/ha; for pest or weed control at 70 g/ha: 70 g ai/ha; for GR50 SETVI: dose for 50 percent growth reduction; for GR50 SETVI / GR80 SETVI: probit analysis; for GR80 SETVI: dose for 80 percent growth reduction; for pest or weed control at 140 g/ha: 140 g ai/ha
Experimental: as §1, §2, §3, §4

[7] = system: TRZSS: wheat, including spring and winter (Triticum aestivum); assay: as above; type: in vivo; conditions: Table 9, 21 d; for GR20 TRZSS: dose for 20 percent growth reduction, probit analysis; for pest or weed control at 35 g/ha / pest or weed control at 70 g/ha / pest or weed control at 140 g/ha: Triticum aestivum, post-emergence, 504 h, post-emergent, read-out: Visual Growth Reduction (%) 21 Days After Application TRZSS; for pest or weed control at 35 g/ha: 35 g ai/ha; for pest or weed control at 70 g/ha: 70 g ai/ha; for pest or weed control at 140 g/ha: 140 g ai/ha
Experimental: as §1, §2, §3, §4

Compound	pest or weed control at 35 g/ha [1] [%]	pest or weed control at 70 g/ha [1] [%]	pest or weed control at 35 g/ha [2] [%]	pest or weed control at 70 g/ha [2] [%]	GR50 APESV [2] [g ai/ha]	GR80 APESV [2] [g ai/ha]	pest or weed control at 35 g/ha [3] [%]	pest or weed control at 70 g/ha [3] [%]	GR20 HORSS [3] [g ai/ha]	pest or weed control at 35 g/ha [4] [%]	pest or weed control at 70 g/ha [4] [%]	GR50 KCHSC [4] [g ai/ha]	GR80 KCHSC [4] [g ai/ha]	GR50 LOLSS [5] [g ai/ha]	GR80 LOLSS [5] [g ai/ha]	pest or weed control at 35 g/ha [6] [%]	pest or weed control at 70 g/ha [6] [%]	GR50 SETVI [6] [g ai/ha]	GR80 SETVI [6] [g ai/ha]	GR20 TRZSS [7] [g ai/ha]	other results
C#Cc1ccc(-c2nc(C(=O)O)c(C=C)c(N)c2F)cc1 [Compound 36]	0 to 29	0 to 29	0 to 29	0 to 29	>140	>140	30 to 44	60 to 74	16	0 to 29	0 to 29	>140	>140	>140	>140	0 to 29	30 to 44	126	>140	1	pest or weed control at 35 g/ha [7]: 75 to 84%; pest or weed control at 70 g/ha [7]: 75 to 84%
Nc1c(F)c(-c2cc(F)c(Br)cc2F)nc(C(=O)O)c1Cl [Compound 42, 4-amino-6-(4-bromo-2,5-difluorophenyl)-3-chloro-5-fluoropicolinic acid]	30 to 44	45 to 59	85 to 94	85 to 94	7	22	85 to 94	85 to 94	1	85 to 94	60 to 74	1	1	76	>140	85 to 94	85 to 94	1	19	1	pest or weed control at 140 g/ha [1]: 75 to 84%; pest or weed control at 140 g/ha [2]: 95 to 100%; pest or weed control at 140 g/ha [3]: 95 to 100%; pest or weed control at 140 g/ha [4]: 95 to 100%; pest or weed control at 140 g/ha [6]: 95 to 100%; pest or weed control at 35 g/ha [7]: 85 to 94%; pest or weed control at 70 g/ha [7]: 85 to 94%; pest or weed control at 140 g/ha [7]: 95 to 100%
Nc1c(Cl)c(C(=O)O)nc(-c2ccc(C(F)(F)F)c(F)c2)c1Cl [Compound 146]	0 to 29	0 to 29	95 to 100	95 to 100	23	34	75 to 84	85 to 94	1	0 to 29	0 to 29	>140	>140	>140	>140	45 to 59	75 to 84	41	76	1	pest or weed control at 140 g/ha [1]: 0 to 29%; pest or weed control at 140 g/ha [2]: 95 to 100%; pest or weed control at 140 g/ha [3]: 95 to 100%; pest or weed control at 140 g/ha [4]: 0 to 29%; pest or weed control at 140 g/ha [6]: 95 to 100%; pest or weed control at 35 g/ha [7]: 75 to 84%; pest or weed control at 70 g/ha [7]: 85 to 94%; pest or weed control at 140 g/ha [7]: 85 to 94%
C=Cc1c(C(=O)O)nc(-c2ccc(C#N)cc2)c(F)c1N [Compound 150]	0 to 29	0 to 29	0 to 29	0 to 29	>140	>140	30 to 44	45 to 59	8	60 to 74	60 to 74	7	>140	>140	>140	0 to 29	30 to 44	79	>140	1	pest or weed control at 35 g/ha [7]: 60 to 74%; pest or weed control at 70 g/ha [7]: 60 to 74%
